In PubChem BioAssay (NCI):
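At the GI50, growth is halved. TGI is the concentration that stops growth completely.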

Tests used:
Assay in all cases: NCI anticancer screen, dose series, 384-well format
A498 renal = test system: A498 renal
BT-549 breast = test system: BT-549 breast
CAKI-1 renal = test system: CAKI-1 renal
HCT-116 colon = test system: HCT-116 colon
HCT-15 colon = test system: HCT-15 colon
LOX IMVI melanoma = test system: LOX IMVI melanoma
MDA-MB-468 breast = test system: MDA-MB-468 breast
NCI-H322M lung = test system: NCI-H322M lung
PC-3 prostate = test system: PC-3 prostate
RXF 393 renal = test system: RXF 393 renal
SK-MEL-5 melanoma = test system: SK-MEL-5 melanoma
SN12C renal = test system: SN12C renal
SNB-19 CNS = test system: SNB-19 CNS

SMILES	GI50 (A498 renal) [µM]	TGI (A498 renal) [µM]	GI50 (BT-549 breast) [µM]	TGI (BT-549 breast) [µM]	GI50 (CAKI-1 renal) [µM]	TGI (CAKI-1 renal) [µM]	GI50 (HCT-116 colon) [µM]	TGI (HCT-116 colon) [µM]	GI50 (HCT-15 colon) [µM]	TGI (HCT-15 colon) [µM]	GI50 (LOX IMVI melanoma) [µM]	TGI (LOX IMVI melanoma) [µM]	GI50 (MDA-MB-468 breast) [µM]	TGI (MDA-MB-468 breast) [µM]	GI50 (NCI-H322M lung) [µM]	TGI (NCI-H322M lung) [µM]	GI50 (PC-3 prostate) [µM]	TGI (PC-3 prostate) [µM]	GI50 (RXF 393 renal) [µM]	TGI (RXF 393 renal) [µM]	further results
CN(C)C(=O)c1cc2cnc(Nc3ccc(N4CCNCC4)cn3)nc2n1C1CCCC1	23.9	45.1	20.2	58.9	8.2	63.6	7.55	23.5	28.8	> 75.4	8.51	47.9	> 59.3	> 100	21.3	59.5	17.8	> 80.5	17.5	31	GI50 (SK-MEL-5 melanoma): 28 µM; TGI (SK-MEL-5 melanoma): > 97.1 µM; GI50 (SN12C renal): 20.3 µM; TGI (SN12C renal): > 73.2 µM; GI50 (SNB-19 CNS): > 67.7 µM; TGI (SNB-19 CNS): > 100 µM
O=C(Nc1cccc(C(F)(F)F)c1)Nc1cc(S(=O)(=O)NC2CC2)ccc1-c1ccsc1	2.86	8.34	7.6	19.8	3.59	15.2	3.17	10.6	3.49	12.5	4.08	13.1	1.96	4.12	5.66	17.2	3.92	13.3	3.28	12.1	GI50 (SK-MEL-5 melanoma): 2.32 µM; TGI (SK-MEL-5 melanoma): 5.61 µM; GI50 (SN12C renal): 4.71 µM; TGI (SN12C renal): 17.6 µM; GI50 (SNB-19 CNS): 4.51 µM; TGI (SNB-19 CNS): 14.7 µM
COc1cc2nccc(Oc3ccc(NC(=O)C4(C(=O)Nc5ccc(F)cc5)CC4)cc3)c2cc1OC	3.29	12.2	4.15	12.9	2.62	9.96	3.78	14.2	3.22	10.4	3.24	9.47	3.67	9.4	3.36	16	3.8	15.4	2.73	5.49	GI50 (SK-MEL-5 melanoma): 2.19 µM; TGI (SK-MEL-5 melanoma): 6.58 µM; GI50 (SN12C renal): 0.372 µM; TGI (SN12C renal): 4.71 µM; GI50 (SNB-19 CNS): 7.3 µM; TGI (SNB-19 CNS): > 55.2 µM
